Ten compounds from patent US20160115188A1, “NOVEL alpha-GALACTOSYL CERAMIDE ANALOGS AND USES THEREOF” (Chang Gung Memorial Hospital, Linkou, priority 2014, published 2016) can be followed below.

In one data set the test system is Human iNKT cells. Briefly: Cytokine production of human iNKT cells co-cultured with compound-loaded dendritic cells (Luminex). It is filed as cell-based. To be noted: for GM-CSF level induced / IFN-γ level induced / IL-2 level induced / IL-4 level induced / IL-10 level induced: dendritic cells loaded with 1 μM compound, cultured with iNKT cells for 3 days, mean±SD; for ratio of IL-4/IFN-γ / ratio of IL-10/IFN-γ: human iNKT cells with compound-loaded dendritic cells, Th2 skewing. On the procedure:
The immune response elicited by Compounds 1 and 2a-2i in human NKT cells was evaluated using human dendritic cell (DC).
Method: Human iNKT cells were isolated with anti-TCR Vα24 antibody and cultured for 7 days in the presence of IL-2 (1 μg/mL). The dendritic cells were generated from CD14+ cells, sorted from peripheral blood mononuclear cells (PBMC) by incubating PBMC for 7 days with GM-CSF (50 ng/mL) and IL-4 (50 ng/mL). Dendritic cells were loaded with the following: 1 μM of Compound 1 or 1 μM of Compounds 2a-2i, and cultured with iNKT cells for 3 days. The culture supernatants were collected and analyzed for various cytokines production by Luminex. Data were presented as mean±SD and analyzed by one-way ANOVA.
The ratios of IL-4/IFN-γ and IL-10/IFN-γ were used evaluate if the immune response elicited by Compounds 1 and 2a-2i was skewed toward Th2 mediated response.

Data set [1] is described as follows: Solubility noted during characterisation. It is filed as physicochemical. To be noted: room temperature; prevented optical rotation measurement.
The subject of the next data set is mNK1.2 cells. The data set can be described thus: Induction of IL-2 in mNK1.2 cells cultured with compound-loaded A20-CD1d cells (ELISA). It is filed as cell-based, murine. Particulars: cultured with mNK1.2 cells, supernatant after 72 hours. On the procedure:
The immune response elicited by Compounds 1 and 2a-2i was assessed by the induction of IL-2 in mNK1.2 cells. Compound 1 is illustrated by the following formula: […]
Method: A20-CD 1d cells were loaded with Compound 1 (α-GalCer) and Compounds 2a-2i, and cultured with mNK1.2 cells. Supernatants were collected after 72 hours to determine the production of IL-2 by ELISA.

Setting [2] is: in words, relative to Compound 1.

One may read the melting point as the temperature of the solid-liquid transition.

Structures are written as SMILES.

`CCCCCCCCCCCCCCCCCCCCCCCCCC(=O)N[C@@H](CO[C@H]1OC(COS(=O)(=O)[O-])[C@H](O)C(O)C1O)[C@H](O)[C@H](O)CCCCCCCCCCCCCC.[Na+]` (stereo partly drawn) [Compound 2h, (2S,3S,4R)-1-O-(6-O-sulfo-α-D-galactopyranosyl)-D-ribo-2-hexacosanoylamino-1,3,4-octadecantriol, sodium salt]: in the data set on Human iNKT cells, the GM-CSF level induced worked out at 2024 ± 108.4 pg/mL, the IFN-γ level induced turned out to be 2739 ± 14.52 pg/mL, the IL-2 level induced was 60.3 ± 24.4 pg/mL and the IL-4 level induced is 113.9 ± 28.4 pg/mL.

The compound `CCCCCCCCCCCCCCCCCCCCCCCCCC(=O)N(C)[C@@H](CO[C@H]1OC(COC)[C@H](O)[C@H](O)C1O)[C@H](O)[C@H](O)CCCCCCCCCCCCCC` (stereo partly drawn) [Compound 2a, (2S,3S,4R)-1-O-(6-O-methyl-α-D-galactopyranosyl)-D-ribo-2-N-methyl-hexacosanoylamino-1,3,4-octadecantriol] yielded a melting point of 64 to 66 °C. In the data set on Human iNKT cells, the “ratio of IL-4/IFN-γ” value worked out at 0.032±0.0009 and the “ratio of IL-10/IFN-γ” value is 0.63±0.07.

As for `CCCCCCCCCCCCCCCCCCCCCCCCCC(=O)N[C@@H](CO[C@H]1O[C@H](COCCCCCCCCCCCC)[C@H](O)[C@H](O)[C@H]1O)[C@H](O)[C@H](O)CCCCCCCCCCCCCC` [Compound 2d, (2S,3S,4R)-1-O-(6-O-dodecyl-α-D-galactopyranosyl)-D-ribo-2-hexacosanoylamino-1,3,4-oct-adecantriol], in the data set on Human iNKT cells, the IL-2 level induced is 33.8 ± 0.2 pg/mL, the IL-4 level induced was found to be 191.5 ± 35.3 pg/mL, the “ratio of IL-4/IFN-γ” value amounted to 0.331±0.074 and the “ratio of IL-10/IFN-γ” value worked out at 0.83±0.1.

Take `CCCCCCCCCCCCCCCCCCCCCCCCCC(=O)N[C@@H](CO[C@H]1OC(CN)[C@H](O)C(O)C1O)[C@H](O)[C@H](O)CCCCCCCCCCCCCC` (stereo partly drawn) [Compound 2i, (2S,3S,4R)-1-O-(6-amine-α-D-galactopyranosyl)-D-ribo-2-hexacosanoylamino-1,3,4-octadecantriol]: the melting point was 187 to 188 °C. For the same compound, in the data set with Human iNKT cells, the IFN-γ level induced came to 2687 ± 89.4 pg/mL and the IL-10 level induced is 2001 ± 46.8 pg/mL. In the data set on Human iNKT cells (setting [2]), the “level of IFN-γ compared to Compound 1” value was “comparable level”, the “level of IL-4 compared to Compound 1” value was “lower level” and the “ratio of IL-4/IFN-γ compared to Compound 1” value is given as “lower ratio”. Besides, the solubility result in data set [1] was “poor solubility”.

Consider `CCCCCCCCCCCCCCCCCCCCCCCCCC(=O)N[C@@H](CO[C@H]1OC(COP(=O)(O)O)[C@H](O)C(O)C1O)[C@H](O)[C@H](O)CCCCCCCCCCCCCC` (stereo partly drawn) [Compound 2g, (2S,3S,4R)-1-O-(6-O-phospho-α-D-galactopyranosyl)-D-ribo-2-hexacosanoylamino-1,3,4-oc-tadecantriol, phosphoric acid], for which the melting point was 182 °C. In addition, in the data set with Human iNKT cells, the GM-CSF level induced was determined as 1350 ± 146.2 pg/mL, the IFN-γ level induced came to 2704 ± 10.3 pg/mL and the IL-10 level induced came to 2010 ± 325.1 pg/mL.

`CCCCCCCCCCCCCCCCCCCCCCCCCC(=O)N[C@@H](CO[C@H]1O[C@H](COCCCCCCCCCCCCC)[C@H](O)[C@H](O)[C@H]1O)[C@H](O)[C@H](O)CCCCCCCCCCCCCC` [Compound 2e, (2S,3S,4R)-1-O-(6-O-tridecyl-α-D-galactopyranosyl)-D-ribo-2-hexacosanoylamino-1,3,4-oct-adecantriol]: in the data set with Human iNKT cells, the IL-2 level induced came out at 32.5 ± 1.7 pg/mL, the IL-4 level induced amounted to 140.4 ± 6.1 pg/mL, the “ratio of IL-4/IFN-γ” value is recorded as 0.246±0.053 and the “ratio of IL-10/IFN-γ” value came out at 0.73±0.03.

Turning to `CCCCCCCCCCCCCCCCCCCCCCCCCC(=O)N[C@@H](CO[C@H]1O[C@H](COC)[C@H](O)[C@H](O)[C@H]1O)[C@H](O)[C@H](O)CCCCCCCCCCCCCC` [Compound 2b, (2S,3S,4R)-1-O-(6-O-methyl-α-D-galactopyranosyl)-D-ribo-2-hexacosanoylamino-1,3,4-octa-decantriol], the IFN-γ level induced in the data set with Human iNKT cells stood at 2286 ± 344.3 pg/mL. In addition, in the data set with Human iNKT cells (setting [2]), the “levels of cytokines induced compared to Compound 1” value is listed as “similar”. The IL-2 level induced with mNK1.2 cells came to 13.3 ± 1.3 ng/mL.

`CCCCCCCCCCCCCCCCCCCCCCCCCC(=O)N[C@@H](CO[C@H]1O[C@H](COCCCCCC)[C@H](O)[C@H](O)[C@H]1O)[C@H](O)[C@H](O)CCCCCCCCCCCCCC` [Compound 2c, (2S,3S,4R)-1-O-(6-O-hexyl-α-D-galactopyranosyl)-D-ribo-2-hexacosanoylamino-1,3,4-octa-decantriol]: in the data set on Human iNKT cells, the “ratio of IL-4/IFN-γ” value was found to be 0.044±0.011 and the “ratio of IL-10/IFN-γ” value turned out to be 0.91±0.26.

In the case of `CCCCCCCCCCCCCCCCCCCCCCCCCC(=O)N[C@@H](CO[C@H]1O[C@H](COCCCCCCCCCCCCCCCCCCCC)[C@H](O)[C@H](O)[C@H]1O)[C@H](O)[C@H](O)CCCCCCCCCCCCCC` [Compound 2f, (2S,3S,4R)-1-O-(6-O-eicosanyl-α-D-galactopyranosyl)-D-ribo-2-hexacosanoylamino-1,3,4-oc-tadecantriol], in the data set with Human iNKT cells, the “ratio of IL-4/IFN-γ” value worked out at 0.093±0.041 and the “ratio of IL-10/IFN-γ” value is recorded as 0.69±0.24.

On to `CCCCCCCCCCCCCCCCCCCCCCCC(=O)N[C@@H](COC1OC(CO)C(O)C(O)C1O)[C@H](O)[C@H](O)CCCCC` (some centres unmarked) [OCH, reference compound], for which, in the data set with Human iNKT cells, the “ratio of IL-4/IFN-γ” value came to 0.25 and the “ratio of IL-10/IFN-γ” value worked out at 0.26.
